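1) Cells in 96-well plates. 2) Compound, 48 h, 5 concentrations. 3) Linear interpolation between surrounding doses. 4) Unreached endpoint = highest concentration. GI50 is the concentration that inhibits growth by half.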 Calls of active or inactive are those of the source. No stated cut-off is given here; in the data, active = GI50 up to about 1.1 µM and inactive = higher. Where a SMILES comes first, the peptide text is derived from it. The star is where a group is joined. Boc = CC(C)(C)OC(=O)*
What was measured:
Assay in all cases: growth of human tumour cells (NCI), 48 h
[1] = system: COLO 205
[2] = system: SK-MEL-5
[3] = system: SF-295
[4] = system: IGROV-1
[5] = system: PC-3
[6] = system: Hs-578T
[7] = system: M14
[8] = system: BT-549
[9] = system: A498
[10] = system: SNB-75
[11] = system: KM12
[12] = system: SK-MEL-2
[13] = system: SNB-19
[14] = system: CAKI-1
[15] = system: U-251
[16] = system: HOP-92
[17] = system: CCRF-CEM
[18] = system: OVCAR-8
[19] = system: SR

Row | SMILES | GI50 [1] | GI50 [2] | GI50 [3] | GI50 [4] | GI50 [5] | GI50 [6] | GI50 [7] | GI50 [8] | GI50 [9] | GI50 [10] | GI50 [11] | GI50 [12] | GI50 [13] | GI50 [14] | GI50 [15] | GI50 [16] | GI50 [17] | GI50 [18] | GI50 [19]
1 | CC(C)[C@H](NC(=O)[C@H](N)Cc1ccc(N(CCCl)CCCl)cc1)C(=O)O | > 100 µM (inactive) | > 100 µM (inactive) | > 100 µM (inactive) | > 100 µM (inactive) | > 100 µM (inactive) | > 100 µM (inactive) | > 100 µM (inactive) | > 100 µM (inactive) | > 100 µM (inactive) | > 100 µM (inactive) | > 100 µM (inactive) | > 100 µM (inactive) | > 100 µM (inactive) | > 100 µM (inactive) | > 100 µM (inactive) | 9.82 µM (inactive) | 78.7 µM (inactive) | > 100 µM (inactive) | 
2 | Cn1/c(=N\S(=O)(=O)c2ccccc2)n(S(=O)(=O)c2ccccc2)c2ccccc21 | 32.9 µM (inactive) | 35.7 µM (inactive) | 62.1 µM (inactive) | > 100 µM (inactive) | 29.5 µM (inactive) | 41.8 µM (inactive) | 53.7 µM (inactive) | > 100 µM (inactive) | 78.7 µM (inactive) | 54.7 µM (inactive) | 26.2 µM (inactive) | 34.4 µM (inactive) | 89.3 µM (inactive) | > 100 µM (inactive) | 34.7 µM (inactive) | > 10 µM (inactive) | 24.7 µM (inactive) | 56.1 µM (inactive) | 
3 | O=C(C[C@@H]1CCCN2CCCC[C@H]12)N1c2ccccc2Sc2ccc(Cl)cc21 | 11.9 µM (inactive) | 11.7 µM (inactive) | 19.5 µM (inactive) | 12.6 µM (inactive) | 13.2 µM (inactive) | 17.1 µM (inactive) | 4.95 µM (inactive) | 14.7 µM (inactive) |  | 13.8 µM (inactive) | 13.3 µM (inactive) |  | 16.1 µM (inactive) | 14.4 µM (inactive) | 12.1 µM (inactive) |  | 15 µM (inactive) | 19.3 µM (inactive) | 19.3 µM (inactive)
4 | CCOc1ccc(/N=N/c2ccc(-c3ccc(/N=N/c4c(O)ccc5cc(S(=O)(=O)O)cc(S(=O)(=O)O)c45)cc3)cc2)cc1 | > 100 µM (inactive) | > 100 µM (inactive) | > 100 µM (inactive) | > 100 µM (inactive) | > 100 µM (inactive) | > 100 µM (inactive) | > 100 µM (inactive) | > 100 µM (inactive) |  |  | > 100 µM (inactive) | > 100 µM (inactive) | > 100 µM (inactive) | > 100 µM (inactive) | > 100 µM (inactive) | > 100 µM (inactive) | > 100 µM (inactive) | > 100 µM (inactive) | 66.2 µM (inactive)
5 | Cc1ccc(S(=O)(=O)Oc2ccc(OS(=O)(=O)c3ccc(C)cc3)c3c2C(=O)c2ccccc2C3=O)cc1 | > 100 µM (inactive) | > 100 µM (inactive) |  | > 100 µM (inactive) | > 100 µM (inactive) | 38.7 µM (inactive) | > 100 µM (inactive) | > 100 µM (inactive) |  | 16.8 µM (inactive) | > 100 µM (inactive) | > 100 µM (inactive) | 54.6 µM (inactive) | > 100 µM (inactive) | > 100 µM (inactive) | > 100 µM (inactive) | > 100 µM (inactive) | > 100 µM (inactive) | > 100 µM (inactive)
6 | Nc1nc2c(c(-c3cccc(Cl)c3)n1)COC/C2=C\c1cccc(Cl)c1 | > 100 µM (inactive) | > 100 µM (inactive) | > 100 µM (inactive) | 94.2 µM (inactive) | > 100 µM (inactive) | 45.6 µM (inactive) | > 100 µM (inactive) | > 100 µM (inactive) | > 100 µM (inactive) | 22.9 µM (inactive) | 85.1 µM (inactive) | > 100 µM (inactive) | > 100 µM (inactive) | > 100 µM (inactive) | > 100 µM (inactive) | > 100 µM (inactive) | > 100 µM (inactive) | > 100 µM (inactive) | 
7 | [O-][s+]1c2c(Cc3ccccc3)c(Cc3ccccc3)c1CCc1cccc(c1)CC2 | 17.5 µM (inactive) | 14.9 µM (inactive) | 13.2 µM (inactive) |  | 13.3 µM (inactive) | 18.2 µM (inactive) | 14.7 µM (inactive) | 13.8 µM (inactive) |  | 13 µM (inactive) | 12.2 µM (inactive) | 17 µM (inactive) | 14.6 µM (inactive) | 11.9 µM (inactive) | 13.9 µM (inactive) | 13.4 µM (inactive) | 19.6 µM (inactive) | 13.3 µM (inactive) | 17.2 µM (inactive)
8 | COC(=O)C(Cc1c[nH]c2ccccc12)NC(=O)C(Cc1c[nH]c2ccccc12)NC(=O)C(Cc1c[nH]c2ccccc12)NC(=O)OC(C)(C)C (stereo not drawn) (Boc-Trp-Trp-Trp-OMe; configuration not given here) | 20.4 µM (inactive) | 47.9 µM (inactive) |  | 18.7 µM (inactive) | 15.9 µM (inactive) | 17.7 µM (inactive) | 37.3 µM (inactive) | 18.1 µM (inactive) | 53.5 µM (inactive) | 19.8 µM (inactive) | 21.5 µM (inactive) | 17.3 µM (inactive) | 18.9 µM (inactive) |  | 18.5 µM (inactive) | 13.2 µM (inactive) |  | 20.7 µM (inactive) | 
9 | C[C@]12c3c4cc(NC(=O)C(=O)NCc5ccc(-c6ccccn6)nc5)cc3Oc3cc(NC(=O)C(=O)NCc5ccc(-c6ccccn6)nc5)cc(c31)OC1C=C(NC(=O)C(=O)NCc3ccc(-c5ccccn5)nc3)C=C(O4)C12 (stereo partly drawn) | 23.1 µM (inactive) | 35.3 µM (inactive) | 25.4 µM (inactive) | 16.9 µM (inactive) | 61.5 µM (inactive) | > 100 µM (inactive) | 98.2 µM (inactive) | > 100 µM (inactive) |  | 16.4 µM (inactive) | 16.3 µM (inactive) | 38.7 µM (inactive) | > 100 µM (inactive) | 21.2 µM (inactive) | 84.9 µM (inactive) |  | 16.6 µM (inactive) | 21.9 µM (inactive) | 3.83 µM (inactive)
10 | Cc1cc2c(cc1Cl)Sc1nnc(C)n1S2(=O)=O | 15.2 µM (inactive) | 13.6 µM (inactive) | 15.7 µM (inactive) | 12.3 µM (inactive) | 15 µM (inactive) | 28.9 µM (inactive) | 14 µM (inactive) | 14.1 µM (inactive) | 14.8 µM (inactive) | 13.3 µM (inactive) | 15.5 µM (inactive) |  | 23.5 µM (inactive) | 15.6 µM (inactive) | 15.1 µM (inactive) | 2.84 µM (inactive) | 8.53 µM (inactive) | 17.5 µM (inactive) | 
11 | COc1ccc2nc3cccc([N+](=O)[O-])c3c(NCCN(C)C)c2c1 | 0.0284 µM (active) | 0.102 µM (active) | 0.233 µM (active) | 0.167 µM (active) | 0.108 µM (active) | 0.242 µM (active) | 0.0927 µM (active) | 0.0369 µM (active) | 0.17 µM (active) | 0.159 µM (active) | 0.158 µM (active) | 0.127 µM (active) | 0.282 µM (active) | 0.18 µM (active) | 0.149 µM (active) | 0.057 µM (active) | 0.16 µM (active) | 0.0638 µM (active) | 

From ChEMBL document CHEMBL1201862, “PubChem BioAssay data set” (2004)
